Columns and labels:
[1] = target: T1, C-cell calcium receptor (Rattus norvegicus, UniProt P48442); assay type: cell-based
T1 construct: cultured cell lines expressing the C-cell phenotype (e.g., rat medullary thyroid carcinoma cells; rMTC 6-23 cells); host or cells: rMTC 6-23 rat medullary thyroid carcinoma cells
T1 sequence (P48442 20-1079): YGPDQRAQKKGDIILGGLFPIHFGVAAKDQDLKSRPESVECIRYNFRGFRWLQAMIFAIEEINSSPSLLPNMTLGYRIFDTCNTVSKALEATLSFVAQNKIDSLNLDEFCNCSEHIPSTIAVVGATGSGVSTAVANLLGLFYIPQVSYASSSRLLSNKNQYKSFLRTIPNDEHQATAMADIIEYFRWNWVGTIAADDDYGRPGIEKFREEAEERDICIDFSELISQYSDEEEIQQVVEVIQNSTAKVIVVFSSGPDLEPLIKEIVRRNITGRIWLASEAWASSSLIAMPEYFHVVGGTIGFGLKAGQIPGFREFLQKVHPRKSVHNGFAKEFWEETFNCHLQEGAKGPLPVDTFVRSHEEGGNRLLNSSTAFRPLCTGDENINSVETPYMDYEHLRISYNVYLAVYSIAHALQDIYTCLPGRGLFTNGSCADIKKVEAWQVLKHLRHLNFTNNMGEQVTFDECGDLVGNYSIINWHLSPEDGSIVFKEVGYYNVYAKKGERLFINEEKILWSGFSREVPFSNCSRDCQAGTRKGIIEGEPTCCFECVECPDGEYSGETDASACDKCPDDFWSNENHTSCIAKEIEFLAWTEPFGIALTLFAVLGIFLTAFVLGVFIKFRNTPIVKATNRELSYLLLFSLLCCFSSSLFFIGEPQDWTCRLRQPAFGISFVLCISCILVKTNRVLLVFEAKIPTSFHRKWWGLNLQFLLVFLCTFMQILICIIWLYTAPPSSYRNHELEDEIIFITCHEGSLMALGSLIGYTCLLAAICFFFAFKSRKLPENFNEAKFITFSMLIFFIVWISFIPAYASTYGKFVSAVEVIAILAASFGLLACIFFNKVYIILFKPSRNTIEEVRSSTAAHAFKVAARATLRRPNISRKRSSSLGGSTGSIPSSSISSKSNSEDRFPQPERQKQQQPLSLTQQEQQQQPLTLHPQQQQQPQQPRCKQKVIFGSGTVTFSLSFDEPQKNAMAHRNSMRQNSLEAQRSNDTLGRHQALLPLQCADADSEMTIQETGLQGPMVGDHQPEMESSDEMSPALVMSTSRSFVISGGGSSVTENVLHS

[2] = target: T2, parathyroid cell calcium receptor (Bos taurus, UniProt P35384); assay: Cl- current in Xenopus oocytes injected with bovine parathyroid cell poly(A)+-mRNA; assay type: cell-based; set-up: Whole pieces of gland were used to prepare mRNA that directs the expression of the calcium receptor in Xenopus oocytes; expressed in transfected cells; host or cells: Xenopus laevis oocytes injected with total poly(A)+ mRNA from bovine parathyroid glands; details: 30 μM
T2 sequence (P35384 20-1085): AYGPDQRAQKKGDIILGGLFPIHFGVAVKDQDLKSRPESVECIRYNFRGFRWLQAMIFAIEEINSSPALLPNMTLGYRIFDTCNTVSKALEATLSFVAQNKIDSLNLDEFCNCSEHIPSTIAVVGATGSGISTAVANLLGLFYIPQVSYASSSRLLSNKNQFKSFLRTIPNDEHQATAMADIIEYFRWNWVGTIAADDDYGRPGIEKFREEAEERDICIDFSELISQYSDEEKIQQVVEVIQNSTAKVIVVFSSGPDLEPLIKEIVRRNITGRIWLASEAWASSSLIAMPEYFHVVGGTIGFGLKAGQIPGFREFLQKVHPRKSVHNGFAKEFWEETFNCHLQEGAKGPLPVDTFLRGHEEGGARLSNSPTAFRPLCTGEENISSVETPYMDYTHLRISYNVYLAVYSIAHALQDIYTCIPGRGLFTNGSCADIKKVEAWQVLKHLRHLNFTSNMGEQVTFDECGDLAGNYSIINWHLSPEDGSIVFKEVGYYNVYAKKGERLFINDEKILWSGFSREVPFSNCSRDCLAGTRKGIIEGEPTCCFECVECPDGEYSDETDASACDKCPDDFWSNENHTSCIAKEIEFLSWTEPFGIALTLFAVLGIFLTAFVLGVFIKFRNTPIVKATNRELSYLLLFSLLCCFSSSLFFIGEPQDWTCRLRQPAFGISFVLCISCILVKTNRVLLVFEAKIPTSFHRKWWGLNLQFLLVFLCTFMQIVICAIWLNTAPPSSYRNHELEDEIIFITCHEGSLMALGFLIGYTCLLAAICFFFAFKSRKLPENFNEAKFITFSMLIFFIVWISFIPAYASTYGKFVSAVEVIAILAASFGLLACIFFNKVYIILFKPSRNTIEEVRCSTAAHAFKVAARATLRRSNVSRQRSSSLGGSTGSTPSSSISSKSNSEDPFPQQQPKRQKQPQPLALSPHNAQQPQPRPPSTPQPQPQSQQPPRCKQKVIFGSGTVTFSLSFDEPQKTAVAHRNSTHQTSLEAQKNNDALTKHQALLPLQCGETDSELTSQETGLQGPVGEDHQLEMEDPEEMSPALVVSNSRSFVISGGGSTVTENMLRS
Procedure: Following incubation, an oocyte was placed into a 100-μl plastic chamber and superfused with MBS at a flow rate of 0.5 ml/min using a peristaltic pump. Test molecules or inorganic polycations were added by rapidly moving the tubing into different buffers. Recording and current-passing electrodes were constructed from thin-wall capillary tubing pulled to a resistance of 1-3 Mohms and filled with 3 M KCl. […] Currents were recorded directly onto a strip chart recorder.
Dissociated bovine parathyroid cells were used to further explore the mechanism of action of NPS R-467 at the receptor level. […] It does, however, elicit responses in parathyroid cells and in oocytes when a small amount of extracellular Ca^2+ is present.

Row | SMILES | effect on basal [Ca2+]i [1] | EC50 C-CELL ([1]; Table 6, rMTC 6-23 cells) | Cl- current [2]
1 | NC[C@@H]1O[C@H](O[C@H]2[C@@H](O)[C@H](O[C@@H]3[C@@H](O)[C@H](N)C[C@H](N)[C@H]3O[C@H]3O[C@H](CN)[C@@H](O)[C@H](O)[C@H]3N)O[C@@H]2CO)[C@H](N)[C@@H](O)[C@@H]1O [Neomycin B, neomycin B] | without effect | inactive | –
2 | COc1cccc([C@@H](C)NCCCc2ccccc2)c1 (single isomer, unassigned) [NPS R-467] | – | – | rapid increase in Cl^− current

Reference: patent US20130190407A1, “CALCIUM RECEPTOR-ACTIVE MOLECULES” (NPS Pharmaceuticals, Inc., priority 1991, published 2013)
